Assay results from US20230118517A1, “METHODS OF TREATING MULTIPLE MYELOMA” (Seagen Inc., priority 2020, published 2023).

Experiments:
[1] = test system: MOLP-8 luciferase cells; assay: Disseminated MM mouse tumor xenograft (luminescence); format: in vivo, SCID mice; conditions: SEA-BCMA 3 mg/kg once IP combined with daratumumab 1 mg/kg weekly 5x, N=5
Description: Experiments were performed to test whether SEA-BCMA can combine effectively with daratumumab in a disseminated MM mouse tumor xenograft. MOLP-8 luciferase cells were injected IV into SCID animals and allowed to home to the bone marrow. Molp-8 cells express 2000 copies of BCMA and 323,000 copies of CD38 (daratumumab target). When sufficient luminescence was observed, animals were dosed once IP with SEA-BCMA, or SEA non targeted control at 3 mg/kg. Daratumumab was dosed weekly 5× at 1 mg/kg. Median luminescence plotted, N=5. The combination of SEA-BCMA and daratumumab yielded complete remissions in 4 of 5 animals.

[2] = test system: MM1R myeloma target cells; assay: PBMC-mediated MM1R target cell killing, second experiment (PBMC pretreated 5 days, 0.5 μM pomalidomide); format: cell-based; conditions: combined with Pomalidomide, benchmarked against daratumumab, N=2
Description: Experiments were performed to test whether SEA-BCMA combines effectively with pomalidomide in vitro by combining PBMC effector cells with MM1R target cells treated with both pomalidomide and SEA-BCMA or antibody controls. The first experiment (FIG. 12A) benchmarks against MM standard of care elotuzumab and nonfucosylated parent BCMA antibody. The second experiment (FIG. 12B) benchmarks against MM standard of care daratumumab. MM1R target cells express 15,000 copies of BCMA, 12,000 copies of CS1 (elotuzumab target), and 36,000 copies of CD38 (daratumumab target).
In the second experiment (FIG. 12B), normal donor PBMCs of the FcγRIII V/F genotype were treated with or without 0.5 μM pomalidomide (APEx Bio, cat #A4211) for 5 days. The resulting PBMCs were then washed and mixed with CFSE (Invitrogen cat #V12883) labeled MM1R myeloma target cells at an effector-to-target cell ratio of 10:1. The mixture was then treated with a dose range of the following antibodies: SEA-BCMA, daratumumab, or non-binding hIgG1k antibody control (Sigma cat #15154) with or without 0.5 μM pomalidomide (APEx Bio, cat #A4211) and incubated overnight. Percentage live MM1R cells were then determined using the viability dye 7-AAD (BD Biosciences, cat #559925) by flow cytometry.

[3] = target: T1, membrane BCMA on malignant plasma cells (Homo sapiens, UniProt Q02223); assay: Flow cytometric assessment of BCMA expression and engagement on MM cells in bone marrow; format: in vivo
T1 construct: from tissue; host or cells: multiple myeloma cells in patients' bone marrow aspirates
T1 sequence (Q02223 1-184): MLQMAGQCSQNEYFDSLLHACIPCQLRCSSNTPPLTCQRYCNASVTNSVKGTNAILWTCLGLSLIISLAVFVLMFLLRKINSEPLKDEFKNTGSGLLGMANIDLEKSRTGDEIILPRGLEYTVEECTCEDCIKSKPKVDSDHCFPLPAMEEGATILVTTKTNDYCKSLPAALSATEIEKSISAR
Description: A Flow Cytometric Assay was designed to identify multiple myeloma cells in patients bone marrow aspirate, and measure levels of BCMA (unbound and total) and APRIL on the MM cell surface.
Bone marrow aspirates were collected from enrolled patients at Baseline and on-treatment (C2D22, confirmation of CR, per standard of care), and tested by flow cytometry with one day of collection in most cases.
MM cells detection was performed using extracellular CD138, CD38, CD45, CD56 and CD28 staining and intracellular kappa and lambda light chains staining. […] Detection of APRIL, most probably bound to BCMA on the MM cell surface, is also performed.
Each sample was split into 3 aliquots: one aliquot stained using only the MM gating antigens but no anti-BCMA or anti-APRIL antibodies (gating control), one aliquot stained with MM Gating antigens and the two labeled anti-BCMA antibodies, and one incubated for 2 hours at 37 C with spiked BCMA (100 ug/mL) before staining with MM gating antigens+APRIL+labeled non-competing anti-BCMA 16.16 antibody. After staining, washing and fixation in 2% paraformaldyde, cells were analyzed on a BD FACScanto cytometer, with up to 2×10^6 leukocytes acquired. Data analysis was performed with FACS Diva (Q2) and FlowJo (Seattle Genetics).

[4] = test system: relapsed or refractory multiple myeloma (RRMM); assay: Clinical antitumor activity (IMWG response, serum free light chain); format: in vivo, human
Description: Response assessment included SPEP/immunofixation, UPEP/immunofixation (in patients with a baseline urine M protein ≥200 mg/24 hour or for assessment of VGPR or better), SFLC, quantitative immunoglobulins, and plasmacytoma evaluation by imaging (at baseline, every 4 cycles, and at additional time points if clinically indicated). These samples were collected for local assessment. In addition, blood were analyzed in the central laboratory using a modified SPEP for patients with IgG myeloma.
The determination of antitumor activity were based on response assessments made according to the 2016 IMWG Criteria (Kumar et al., Lancet Oncol 17(8): e328-46, 2016) and treatment decisions by the investigator were based on these assessments. Clinical response of sCR, CR, VGPR, PR, SD, and PD were determined at each assessment based on local laboratory (and the modified SPEP run by the central laboratory for patients with IgG MM), radiological, and clinical evaluations. Progressive disease was based on IMWG 2016 criteria and/or clinical disease progression per investigator. All IMWG responses were confirmed responses. When applicable, determination of immunophenotypic CR, MRD status, and minimal response were made per the IMWG 2016 criteria.
Kappa and lambda free light chains were quantified in serum of patients as surrogate markers of antitumor activity.
A patient was determined to have an OR if, based on the 2016 IMWG uniform response criteria, they achieve a sCR, CR, VGPR, or a PR. The ORR is defined as the proportion of patients with an OR per investigator. Patients whose disease response could not be evaluated per the 2016 IMWG uniform response criteria were scored as Not Evaluable for calculating the ORR.

In the case of “SEA-BCMA: non-fucosylated monoclonal anti-BCMA antibody having heavy chain SEQ ID NO: 13 and light chain SEQ ID NO: 15”, the complete remissions [1] is reported as 4 of 5, the “MM1R target cell killing” value [2] is reported as “greater MM1R target cell killing” and the “saturation of membrane BCMA” value ([3]; 1600 mg) is reported as “complete saturation was observed in at least one patient”. The “unbound membrane BCMA on malignant plasma cells” value ([3]; bone marrow of patients treated in dose escalation) was “reduced levels of unbound membrane BCMA”, the “saturation of membrane BCMA” value ([3]; evaluable patients dosed at 800 mg and 1600 mg) was “Incomplete saturation of membrane BCMA” and the “response by dose level” value ([4]; 1600 mg per dose once every 2 weeks vs 100-800 mg) was “highest overall confirmed response rate”. The response assessment ([4]; Patient A, 1600 mg every two weeks, 7 prior lines) was “very good partial response (VGPR)”, the “time to which low level of sFLC was maintained” value ([4]; Patient A, 1600 mg every two weeks, after the first dose) was no less than 40 days and the response ([4]; all dose levels (100-1600 mg), after a minimum of 3 cycles of treatment) was “stable disease was observed”. For the same substance, the “patients with confirmed very good partial response (VGPR)” value ([4]; among 3 response evaluable patients, 1600 mg) was 1 patient, the response ([4]; combination with dexamethasone, SEA-BCMA Day 1 and 15, dexamethasone Day 1, 8, 15, 22 of 28-day cycle) was “Confirmed responses were also observed” and the response ([4]; intensive dosing: 1600 mg q1wk for 8 doses, then once every two weeks) was “Confirmed responses were also observed”. The “decrease of serum free light chain (sFLC) level” value ([4]; patient (Patient A), one week after first 1600 mg dose) was “about 90%” and the response ([4]; patient, 200 mg escalated to 1600 mg, 8 prior lines) was “maintaining stable disease even 10 months after commencement of treatment”.
